US9604987B2, “Synthesis of autophagy inducing compound and the uses thereof” (Hong Kong Baptist University, priority 2012, dated 2017)

Key:
JNPL P301 Tau mice = JNPL P301 Tau mice treated intraperitoneally; format: in vivo; conditions: 20 mg/kg/d intraperitoneally, three months
Protocol: N2a Swedish APP cells are incubated with different concentration of Cory and Cory B in the presence or absence of CQ and 3MA. […] Tg2567 APP mice, 3 months old JNPL P301 Tau mice and WT mice intraperitoneally are administrated with 20 mg/kg/d CoryB.

[1] = system: mouse primary cortical neurons; assay: Autophagy in primary mouse cortical neurons (LC3-II blot, GFP-LC3 puncta); format: cell-based, E17 embryonic ICR mice; conditions: 24 hours
Protocol: Primary neuron culture. The E17 embryonic pup brains were dissected and cortices were placed in a Petri dish containing ice cold EBSS, with meninges carefully removed. Tissues were digested in 5 ml of digestion solution (EBSS containing 0.5 mM EDTA (E6758, Sigma), 0.5 mg/ml Papain (3120, Worthington Biochem) and 4 mg/ml L-Cysteine (C7880, Sigma)) at 37° C. for 15 minutes. The tissue was sucked out in 1 ml of digestion solution and mixed with 3 ml of digestion inhibition solution (EBSS containing 5 mg/ml BSA (A2153, Sigma), 5 mg/ml Trypsin inhibitor (T9253, Sigma) and 10 μg/ml DNase (DN25, Sigma)). The mixed tissue solution was thoroughly mixed to dissociate the cells and then transferred to a 50 ml tube through a 70 μm filter. The cells were collected by centrifugation and re-suspended in seeding medium (DMEM containing 10% FBS and 10% horse serum). […]
To further confirm the pro-autophagic effect of Cory B on primary neurons, mouse primary cortical neurons isolated from E17 embryonic ICR mice are used in this study. […] Neurons are fixed in 4% paraformaldehyde and analyzed under a confocal microscope. GFP-LC3 puncta number in each GFP positive neuron is counted and at least 20 neurons in each group is counted. […]

[2] = system: α-syn (WT, A53T, A30P) in N2a cells; assay: Clearance of over-expressed WT and mutant α-syn in N2a cells (western blot); format: cell-based, mouse
Protocol: (§1) Native and denatured PAGE and Western blotting analysis. Samples to be run under denaturing conditions were lysed with RIPA lysis buffer (150 mM NaCl, 50 mM Tris-HCl, 0.35% sodium deoxycholate, 1 mM EDTA, 1% NP40, 1 mM PMSF, 5 μg/ml aprotinin, 5 μg/ml leupeptin). Samples for native gels were lysed with detergent-free lysis buffer (50 mM Tris/HCl pH 7.4, 175 mM NaCl, 5 mM EDTA pH 8.0, 1 mM PMSF, 5 μg/ml aprotinin, 5 μg/ml leupeptin), and sheared 5 times through a 28-gauge needle followed by 2 times of sonication for 5 seconds according to previously described protocol. For denaturing, SDS-PAGE was performed using Tris-Glycine SDS running buffer and SDS sample buffer, and for native conditions, native-PAGE was run with detergent-free Tris-Glycine running buffer (BN2007, Invitrogen) and 4× native sample buffer (BN2003, Invitrogen) on a pre-casted native PAGE gel (BN1002BOX, Invitrogen). The proteins on the gels were then transferred to PVDF membrane (RPN303F, GE Healthcare) and processed for immunoblotting. Membranes were blocked with 5% non-fat milk and probed with the appropriate primary and secondary antibodies. The desired bands were visualized using the ECL kit (32106, Pierce). The band density was quantified using the ImageJ program and normalized to that of the control group.
N2a cells over-expressed in WT and α-syn mutants (A53T and A30P) and N2a cells with GFP as negative control are subjected to Cory B treatment for 24 hours. […] Data presents as the mean±SEM from 3 independent experiments (*p<0.05, one-way ANOVA for multiple comparison and Tukey's test as post hoc test).

SH-SY5Y cells = assay: Western blot of autophagy marker LC3-II in SH-SY5Y cells; format: cell-based, human; conditions: 0-25 μM, 24 hours
Protocol: as §1, with “group. […]” for “group.”

CC[C@@H]1CN2CC[C@]3(C(=O)Nc4ccccc43)C2C[C@@H]1C(=COC)C(=O)OC (stereo partly shown) [Cory B, Corynoxine B]
total tau (JNPL P301 Tau mice): significantly decrease | LC3-II level ([1]; 0-50 μM): dose-dependent increase of LC3-II | GFP puncta in neurons transfected with GFP-LC3 construct ([1]; 50 μM): induces massive formation of GFP puncta | α-syn pro-clearance activity under 3-MA and CQ ([2]; 5 mM 3-MA and 30 μM CQ): abolish pro-clearance activity | WT and mutant α-syn levels ([2]; N2a over-expressing WT, A53T, A30P α-syn, 24 hours): reduces WT and mutant α-syn levels in a dose-dependent manner | GFP levels (negative control protein) ([2]; N2a with GFP, 24 hours): does not reduce GFP levels | LC3-II levels (SH-SY5Y cells): increases levels of LC3-II
